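96-well plates; 48 h exposure; 5 concentrations. Endpoints by linear interpolation between flanking doses. Not reached: highest tested concentration assigned. GI50: concentration for 50% inhibition of growth.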 The source made the active and inactive calls. Cut-off read from the data, not from the text of the source: active = GI50 up to about 1.1 µM and inactive = higher.
Assays:
Test in all cases: NCI tumour cell line growth inhibition, 48 h
SK-MEL-5 = test system: SK-MEL-5
MDA-MB-231 = test system: MDA-MB-231
HCT-15 = test system: HCT-15
RPMI-8226 = test system: RPMI-8226
NCI-H23 = test system: NCI-H23
SF-539 = test system: SF-539
KM12 = test system: KM12
SK-MEL-2 = test system: SK-MEL-2
HCT-116 = test system: HCT-116
786-0 = test system: 786-0
TK-10 = test system: TK-10
UACC-257 = test system: UACC-257
T47D = test system: T47D
PC-3 = test system: PC-3
HOP-62 = test system: HOP-62
MDA-MB-435 = test system: MDA-MB-435
NCI-H522 = test system: NCI-H522
NCI-H226 = test system: NCI-H226
UACC-62 = test system: UACC-62
U-251 = test system: U-251

SMILES	GI50 (SK-MEL-5)	GI50 (MDA-MB-231)	GI50 (HCT-15)	GI50 (RPMI-8226)	GI50 (NCI-H23)	GI50 (SF-539)	GI50 (KM12)	GI50 (SK-MEL-2)	GI50 (HCT-116)	GI50 (786-0)	GI50 (TK-10)	GI50 (UACC-257)	GI50 (T47D)	GI50 (PC-3)	GI50 (HOP-62)	GI50 (MDA-MB-435)	GI50 (NCI-H522)	GI50 (NCI-H226)	GI50 (UACC-62)	GI50 (U-251)
O=C(C=P(c1ccccc1)(c1ccccc1)c1ccccc1)c1ccccc1-c1ccccc1C(=O)C=P(c1ccccc1)(c1ccccc1)c1ccccc1	0.0111 µM (active)	0.0215 µM (active)	0.28 µM	< 0.01 µM (active)	0.018 µM (active)	0.0328 µM (active)	< 0.01 µM (active)	0.0212 µM (active)	0.0222 µM (active)	0.0344 µM (active)	< 0.01 µM (active)	< 0.01 µM (active)	< 0.01 µM (active)	< 0.01 µM (active)	0.0311 µM (active)	0.0267 µM (active)	0.014 µM (active)	0.0221 µM (active)	< 0.0163 µM (active)	0.0173 µM (active)
CCN(CC)CC[S+]([O-])c1c2cc(OC)ccc2nc2ccc(OC)cc12 (stereo not given)	16.5 µM (inactive)	13.6 µM (inactive)	3.21 µM	2.63 µM (inactive)	7.64 µM (inactive)	2.32 µM (inactive)	20.6 µM (inactive)	18.6 µM (inactive)	2.19 µM (inactive)	2.02 µM (inactive)	5.56 µM (inactive)	5.08 µM (inactive)	1.95 µM (inactive)	12 µM (inactive)	19.4 µM (inactive)	9.46 µM (inactive)	0.603 µM (active)	18.1 µM (inactive)	17.8 µM (inactive)	20 µM (inactive)
O=C1C(CN2CCOCC2)CCCC1CN1CCOCC1 (stereo not given)	11.1 µM (inactive)	5.97 µM (inactive)	1.09 µM	0.296 µM (active)	6 µM (inactive)	3.92 µM (inactive)	5.98 µM (inactive)	8.36 µM (inactive)	1.29 µM (inactive)	1.16 µM (inactive)	3.94 µM (inactive)	2.09 µM (inactive)	1.13 µM (inactive)	15.6 µM (inactive)	> 100 µM (inactive)	14.4 µM (inactive)	0.0597 µM (active)	20.6 µM (inactive)	7.85 µM (inactive)	30.1 µM (inactive)
CCOC(=O)c1c(OCC)[nH]c(=O)c(C(c2ccc(F)cc2)c2c(O)c(C(=O)OCC)c(OCC)[nH]c2=O)c1O	12.8 µM (inactive)	12.6 µM (inactive)	18.4 µM	16.1 µM (inactive)	19.5 µM (inactive)	10 µM (inactive)	16.9 µM (inactive)	16.6 µM (inactive)	25.7 µM (inactive)	16.4 µM (inactive)	25.2 µM (inactive)	14.8 µM (inactive)	4.44 µM (inactive)	15.3 µM (inactive)	13 µM (inactive)	17.6 µM (inactive)	18.6 µM (inactive)	9.82 µM (inactive)	15.6 µM (inactive)	15.2 µM (inactive)
O=S(=O)(/C=C/C=C/[S+]([O-])c1ccccc1)c1ccccc1 (stereo not given)	1.03 µM (active)	2.81 µM (inactive)	2.05 µM	0.875 µM (active)	1.96 µM (inactive)	8.09 µM (inactive)	> 2.63 µM (inactive)	2.01 µM (inactive)	1.38 µM (inactive)	0.625 µM (active)	2.09 µM (inactive)	1.67 µM (inactive)	2.02 µM (inactive)	> 6.92 µM (inactive)	> 10 µM (inactive)	2.07 µM (inactive)	1.59 µM (inactive)	> 10 µM (inactive)	1.44 µM (inactive)	> 10 µM (inactive)
COc1ccc(/C=C(/c2ccccc2)c2c(C)cc(C)c(/C(=C\c3ccc(OC)cc3)c3ccccc3)c2/N=N/c2cc(C)cc(C)c2)cc1	17.6 µM (inactive)	6.76 µM (inactive)	> 66.1 µM	6.07 µM (inactive)	14.4 µM (inactive)	42.1 µM (inactive)	9.64 µM (inactive)	7.74 µM (inactive)	10 µM (inactive)	13.7 µM (inactive)	21.9 µM (inactive)	7.69 µM (inactive)	4.9 µM (inactive)	9.89 µM (inactive)	20.9 µM (inactive)	14.6 µM (inactive)	15 µM (inactive)	34.2 µM (inactive)	45.6 µM (inactive)	7.33 µM (inactive)
N#CC1=C(S)N(C2OC(CO)C(O)C(O)C2O)C(c2ccccc2)=CC1c1ccco1 (stereo not given)	26.9 µM (inactive)	54.5 µM (inactive)	68.9 µM	23.2 µM (inactive)	59 µM (inactive)	35.2 µM (inactive)	41.9 µM (inactive)	59 µM (inactive)	21.3 µM (inactive)	38 µM (inactive)	44.1 µM (inactive)	97.1 µM (inactive)	4.36 µM (inactive)	47.4 µM (inactive)	44.6 µM (inactive)	> 100 µM (inactive)	35.7 µM (inactive)	> 100 µM (inactive)	16.3 µM (inactive)	19.8 µM (inactive)

— ChEMBL document CHEMBL1201862, “PubChem BioAssay data set” (2004)
